Experimental data taken from paper PMC8795383, “Docking-guided rational engineering of a macrolide glycosyltransferase glycodiversifies epothilone B” (Communications Biology, 2022).
≈ marks a conversion by molar mass, not a printed value. Read-outs that look alike come from different tables or passages of the source.

Assays:
[1] = system: hepatocyte cell line HL-7702; experiment: MTT cytotoxicity assay; assay type: cell-based, human
Excerpt: (§1) NDP-glucose (UDPG, ADPG, TDPG, and GDPG), UDP-N-acetylglucosamine (UDP-GlcNAc), UDP-galactose (UDP-Gal), and UDP-glucuronic acid (UDP-GlcA) were purchased from Sigma-Aldrich (St. Louis, MO, USA). UDP-GlcNAz, UDP-GalNAz, UDP-GlcNTFA, UDP-GalNTFA, UDP-GalNAc, UDP-GalA, CMP-Neu5Ac, GDP-Fuc and GDP-Man were kindly provided by Professor Junqiang Fang[59]–[63]. Epothilone B was purchased from Zhejiang Hisun Pharmaceutical Co., Ltd. The human liver carcinoma cell line HepG2 and human hepatocyte cell line HL-7702 were purchased from Gaining (Gaining Bio. Co., Ltd, Shanghai, China). The cells were cultivated in T-25 flasks in a Thermo Scientific CO2 incubator in a humidified environment at 37°C and 5% CO2. HepG2 cells were preserved in DMEM (Gibco, Thermo Fisher Scientific, Waltham, MA, USA), while HL-7702 cells were preserved in RPMI-1640 (Gibco, Thermo Fisher Scientific, Waltham, MA, USA). All cultures contained 10% fetal calf serum and 1% penicillin C/streptomycin. All chemicals and reagents are of analytical grade.
(§2) By using the MTT colorimetric assay, the antitumor and cytotoxicity of EpoB and its glucosides were tested against the liver carcinoma cell line HepG2 and hepatocyte cell line HL-7702, respectively. The cells were seeded in a 96-well microtiter plate, and the wall-attached cells were treated with varying concentrations of drugs by dilution from 300 μM to 0.1 μM for EpoB glycosides (dissolved in DMSO). After 48 h of incubation with the test compounds, the cultures were treated with MTT (2 mg/mL) solution, and the cells were incubated for an additional 4 h at 37°C until a purple precipitate was visible. The purple formazan crystals were dissolved in DMSO, and the absorbance of each sample was measured at 492 nm using a microplate reader. All MTT assay experiments were performed in triplicate, and IC50 values were calculated using GraphPad Prism software (Version 6.01)[26].

physchem = assay type: physicochemical; conditions: water
Description: The water solubility of EpoB and its glycosides was determined using the minimum shake-flask solubility method[26],[75].

[2] = system: liver carcinoma cell line HepG2; experiment: MTT antitumor assay; assay type: cell-based, human
Excerpt: as §1, §2

HepG2 cells [3] = experiment: Immunofluorescence confocal imaging of tubulin; assay type: cell-based, human; conditions: HepG2, 24 h
Description: Freshly trypsinized HepG2 cells (1 × 10^4−1 × 10^5) were seeded in a 12-well plate and cultivated for 24 h with DMEM (Gibco, Thermo Fisher Scientific, Waltham, MA, USA). Cells were treated with EpoB and 1a at different concentrations (50 nM, 500 nM, and 5 μM) according to the IC50 values for 24 h. The supernatants were removed, and the cells were washed with PBS buffer 2–3 times. The cells were further fixed with 4% paraformaldehyde for 1 h and then permeabilized with 0.2% Triton X-100 (diluted in PBS buffer) for 10 min. Next, the cells were blocked with bovine serum albumin (BSA) for 30 min and incubated with a primary antibody against β-tubulin (1:50, diluted in 2% BSA, β-tubulin Rabbit Monoclonal Antibody, Beyotime Biotechnology) for 1 h at room temperature. After that, the cells were treated with Alexa Fluor 488 goat anti-rabbit IgG (H + L) (secondary antibody, 1:500, diluted in 2% BSA, Beyotime Biotechnology) for another 1 h. The supernatants were removed, the cells were washed, and the nuclei were labeled with DAPI for 10 min. Images were collected using an Olympus BX81 fluorescence microscope system (Olympus, Tokyo, Japan) and a confocal microscope (UltraVIEW®VoX).

HepG2 cells [4] = experiment: Cellular intake assay (HPLC-DAD); assay type: in vitro ADME, human; conditions: HepG2, 5 μM, 1 h
Description: HepG2 cells (1 × 10^5−1 × 10^6 cells/mL) were cultivated overnight at 37°C and then treated with 5 μM EpoB and glycosides for 1 h. After removing the supernatant, the cells were sequentially rinsed with PBS buffer, trypsinized, and then washed with DMEM. Next, the cells were suspended in acetone, disrupted by ultrasonication, and centrifuged at 12000 rpm for 10 min to remove the debris. The resulting supernatants were dried with nitrogen and then redissolved in 200 μL of methanol. Finally, the compounds were analyzed by HPLC-DAD at 249 nm. Each experiment was conducted in three replicates. The concentrations of EpoB and its glycosides (cellular intake) were calculated based on the linear fitting regression equations of the HPLC peak areas.

BsGT-1 I62A = target: T1, BsGT-1 I62A (Bacillus subtilis, UniProt O34539, I62A); assay type: biochemical; conditions: EpoB converted to 1a, sugar donor 2a
T1 construct: made in house; host or cells: E. coli BL21 (DE3)
Description: (§3) Kinetic parameters of BsGT-1 and its mutants for the glycosylation of epothilone B were measured in a reaction mixture (50 μl) containing 20 μg/mL protein, saturated sugar donors, different concentrations of epothilone B, and 50 mM Tris–HCl buffer (50 mM Tris–HCl, pH 7.5, 10 mM MgCl2) at 37°C for 10 min in triplicate. The kinetic values were determined by fitting the Michaelis–Menten curve to the data using the nonlinear regression method (Supplementary Figs. 13–14).

BsGT-1 F231S = target: T2, BsGT-1 F231S (Bacillus subtilis, UniProt O34539, F231S); experiment: Glycosylation kinetics, BsGT-1 F231S mutant; assay type: biochemical; conditions: EpoB converted to 1h, sugar donor 2h
T2 construct: made in house; host or cells: E. coli BL21 (DE3)
Description: as §3

BsGT-1 M296A = target: T3, BsGT-1 M296A (Bacillus subtilis, UniProt O34539, M296A); experiment: Glycosylation kinetics, BsGT-1 M296A mutant; assay type: biochemical; conditions: EpoB converted to 1i, sugar donor 2i
T3 construct: made in house; host or cells: E. coli BL21 (DE3)
Description: as §3

BsGT-1 Q318C = target: T4, BsGT-1 Q318C (Bacillus subtilis, UniProt O34539, Q318C); experiment: Glycosylation kinetics, BsGT-1 Q318C mutant; assay type: biochemical; conditions: EpoB converted to 1e, sugar donor 2e
T4 construct: made in house; host or cells: E. coli BL21 (DE3)
Description: as §3

[5] = read-out: IC50 HL-7702, MTT, 48 h
[6] = read-out: IC50 HepG2, MTT, 48 h
[7] = 25 °C, thermodynamic from solid, read-out: Solubility
[8] = Homo sapiens, HepG2, 48 h, read-out: IC50 HepG2, MTT, 48 h
[9] = Homo sapiens, L02, 48 h, read-out: IC50 HL-7702, MTT, 48 h

In the case of `CC(=Cc1csc(C)n1)C1CC2OC2(C)CCCC(C)C(OC2OC(CO)C(O)C(O)C2O)C(C)C(=O)C(C)(C)C(O)CC(=O)O1` (stereo not drawn) [1a, EpoB 7-O-β-D glucoside], the IC50 [1, 5] is reported as 27.6 ± 1.76 µM, the solubility (physchem; 25°C) is reported as 1550 ± 90 µg/mL (≈ 2.31 mM) and the IC50 [2, 6] is reported as 9.84 ± 0.57 µM. The “penetration into tumor cells and interaction with tubulin” value (HepG2 cells [3]) was “could penetrate into the tumor cells and interact with tubulin” and the “cellular intake rate, lower than that of EpoB” value (HepG2 cells [4]) was 12 fold.

For `CC(=Cc1csc(C)n1)C1CC2OC2(C)CCCC(C)C(OC2OC(CO)C(O)C(OC3OC(CO)C(O)C(O)C3O)C2O)C(C)C(=O)C(C)(C)C(O)CC(=O)O1` [1b, EpoB 7-O-β-D-glucosyl-(1 → 3)-β-D glucoside], the solubility (physchem; [7]) was 86400 ± 1450 µg/mL (≈ 104 mM) and the IC50 [2, 8] was > 100 µM.

For `CC(=Cc1csc(C)n1)C1CC2OC2(C)CCCC(C)C(OC2OC(CO)C(O)C(O)C2OC2OC(CO)C(O)C(O)C2O)C(C)C(=O)C(C)(C)C(O)CC(=O)O1` [1c, EpoB 7-O-β-D-glucosyl-(1 → 2)-β-D glucoside], the IC50 [1, 9] was 46.6 ± 0.48 µM, the solubility (physchem; [7]) was 83000 ± 1540 µg/mL (≈ 99.8 mM) and the IC50 [2, 8] was 34.2 ± 4.16 µM.

Compound `C/C(=C\c1csc(C)n1)[C@@H]1C[C@@H]2O[C@]2(C)CCC[C@H](C)[C@H](O[C@@H]2O[C@H](CO)[C@@H](O[C@@H]3O[C@H](CO)[C@@H](O)[C@H](O)[C@H]3O[C@@H]3O[C@H](CO)[C@@H](O)[C@H](O)[C@H]3O)[C@H](O)[C@H]2O)[C@@H](C)C(=O)C(C)(C)[C@@H](O)CC(=O)O1` [1d, epothilone B 7-O-β-D-glucosyl-(1 → 2)-β-D-glucosyl-(1 → 4)-β-D glucoside] has an IC50 ([1]; MTT, 48 h, read-out: IC50 HL-7702) of 42.8 ± 1.15 µM, a solubility (physchem; 25°C) of 184830 ± 3500 µg/mL (≈ 186 mM) and an IC50 ([2]; MTT, 48 h, read-out: IC50 HepG2) of 38.2 ± 2.41 µM.

With `CC(=O)NC1C(OC2C(C)CCCC3(C)OC3CC(C(C)=Cc3csc(C)n3)OC(=O)CC(O)C(C)(C)C(=O)C2C)OC(CO)C(O)C1O` (stereo not shown) [1e] the IC50 [1, 9] was 31.1 ± 3.77 µM, the solubility (physchem; [7]) was 8220 ± 930 µg/mL (≈ 11.6 mM) and the IC50 [2, 8] was 19.8 ± 0.88 µM.

With `CC(=Cc1csc(C)n1)C1CC2OC2(C)CCCC(C)C(OC2OC(CO)C(O)C(O)C2NC(=O)CN=[N+]=[N-])C(C)C(=O)C(C)(C)C(O)CC(=O)O1` (stereo not shown) [1h] the IC50 [1, 9] was 40.4 ± 1.73 µM, the solubility (physchem; [7]) was 4340 ± 540 µg/mL (≈ 5.77 mM) and the IC50 [2, 8] was 30.2 ± 2.91 µM.

For `CC(=Cc1csc(C)n1)C1CC2OC2(C)CCCC(C)C(OC2OC(CO)C(O)C(O)C2O)C(C)C(=O)C(C)(C)C(O)CC(=O)O1` (stereo not shown) [1i], the IC50 [1, 5] was 9.13 ± 1.02 µM, the solubility (physchem; 25°C) was 3370 ± 550 µg/mL (≈ 5.03 mM) and the “activity higher than that of glucose-modified EpoB (1a)” value ([2]; HepG2, relative to 1a) was ~10 fold. The IC50 [2, 6] was 1.09 ± 0.26 µM and the “cellular intake rate, lower than that of EpoB” value (HepG2 cells [4]) was 8 fold.

With `C/C(=C\c1csc(C)n1)[C@@H]1C[C@@H]2O[C@]2(C)CCC[C@H](C)[C@H](O)[C@@H](C)C(=O)C(C)(C)[C@@H](O)CC(=O)O1` [EpoB, epothilone B] the IC50 [1, 9] was < 0.003 µM, the IC50 [1, 5] was 0.00293 ± 0.00053 µM and the Km (BsGT-1 I62A) was 43.6 ± 4.16 µM. It also gave a kcat (BsGT-1 I62A) of 0.3975 ± 0.023 s⁻¹, a Km (BsGT-1 F231S) of 127 ± 12.9 µM and a kcat (BsGT-1 F231S) of 0.0723 ± 0.0033 s⁻¹. For the same compound, the solubility (physchem; thermodynamic from solid, 25°C, read-out: Solubility) was 190 ± 30 µg/mL (≈ 0.374 mM), the IC50 [2, 8] was < 0.002 µM and the IC50 [2, 6] was 0.00139 ± 0.0003 µM. It also gave a Km (BsGT-1 M296A) of 147 ± 17 µM, a kcat (BsGT-1 M296A) of 0.0555 ± 0.003 s⁻¹ and a Km (BsGT-1 Q318C) of 95.9 ± 7.98 µM. It also gave a kcat (BsGT-1 Q318C) of 0.164 ± 0.00367 s⁻¹.
